In patent publication US12195804B2, “Treatment of squamous cell carcinoma” (Board of Regents, The University of Texas System, priority 2018, dated 2025):

Key:
Assay type in all cases: cell-based, human
HNSCC cell lines [1] = test: Colony formation assay; conditions: 48 hours treatment, 14-21 days, NOTCH1MUT compared with NOTCH1WT lines, below peak plasma concentration
Experimental: (§1) FIGS. 7A-7D: PI3K/mTOR signaling inhibition induces cell death in NOTCH1^MUT but not NOTCH1^WT head and neck squamous cell carcinoma (HNSCC) cell lines in vitro. FIG. 7A. Annexin V/propidium iodide or BrDU-terminal deoxynucleotidyl transferase (TdT) dUTP nick-end labeling (TUNEL) assays were used to measure apoptosis in HNSCC cells with the indicated NOTCH1 and PIK3CA mutations, which were treated with 50 nM GSK2126458 (GSK212) for 24 or 48 hours, respectively. Values are the means±standard deviations of three independent experiments. *p<0.05, unpaired two-tailed Student t-test. FIG. 7B. […] At 14-21 days after treatment, the cells were fixed and stained, images were captured using the GelCount Tumour Colony Counter, and colony numbers and the colorimetric intensity of the colonies were determined by measuring the optical density (OD) at 570 nm. […] Three NOTCH1^WT lines (black text and bars) and three NOTCH1^MUT lines (red text and bars) were treated with increasing concentrations of GSK212 for 4 hours, and levels of PI3K/mTOR pathway proteins were measured by Western blot analysis.
Colony formation assays. […] The total colony number and area were counted and analyzed using the ImageJ software program (National Institutes of Health, Bethesda, MD). […]

[2] = system: PI3K/mTOR pathway proteins; test: Western blot of PI3K/mTOR pathway proteins; conditions: 4 hours, NOTCH1WT and NOTCH1MUT lines
Experimental: as §1
Western blot analysis. […] Protein expression was detected using a horseradish peroxidase-conjugated secondary antibody (Bio-Rad, Hercules, CA) and electrochemiluminescence reagent (Amersham Biosciences, Pittsburg, PA).

HNSCC cell lines [3] = test: Cell cycle analysis (BrdU/7-AAD flow cytometry); conditions: 50 nM
Experimental: FIGS. 16A-16C: Effects of PI3K/mTOR signaling inhibition on the survival of NOTCH1MUT and NOTCH1WT head and neck squamous cell carcinoma (HNSCC) cell lines in vitro. FIG. 16A. The Annexin V/propidium iodide assay was used to assess apoptosis in HNSCC cells that had the indicated NOTCH1 and PIK3CA mutations and were treated with 500 nM BAY806946. Values are the means {plus minus} standard deviations of three independent experiments. […], unpaired two-tailed Student t-test. FIG. 16B. NOTCH1MUT lines (red text) and NOTCH1WT lines (black text) were treated with increasing concentrations of BAY806946 for 3 hours, and then Western blotting was used to assess levels of p-AKT (S473). FIG. 16C. NOTCH1WT lines (black text), NOTCH1MUT lines (red text), and PIK3CAMUT lines (blue text) were treated with 50 nM GSK2126458 (GSK212) and then pulse-labeled with BrDU and counterstained with 7-AAD for flow cytometry.
Apoptosis and cell cycle assays. […] Data were acquired with a three-laser, 10-color Gallios flow cytometer (Beckman Coulter, Brea, CA) and analyzed using Kaluza software (Beckman Coulter, Brea, CA). […]

HNSCC cell lines [4] = test: CellTiter-Glo cell viability assay; conditions: 0-200 nM, 72 hours
Experimental: Cell viability assay. […] A CellTiter-Glo luminescent cell viability assay (Promega, Madison, WI) was performed as described previously (Castel et al., 2016; Muellner et al., 2011). Inhibitory concentration (ICs) and area under the curve (AUC) values were calculated using the drexplorer R package with a best-fit dose-response model (Zumsteg et al., 2016). The combination indices were calculated using the Chou-Talalay method (Cal et al., 2017) in CalcuSyn (Biosoft, Cambridge, UK). We tested the reproducibility and robustness of the data generated using three quality control parameters as described previously (Bohnacker et al., 2017). These parameters were the concordance correlation coefficient, location shift, and maximum standard deviation between two biological replicates for three technical and two biological replicates. Based on heuristics from our previous screening studies in lung cancer (Bohnacker et al., 2017), the cut-offs for reproducibility were a concordance correlation coefficient greater than 0.8, a location shift less than 0.9, and a standard deviation less than 0.23 based on the normal mixture fit model. Experiments not satisfying these criteria were repeated. The replicate with the smallest experimental variation measured by the median of standard deviation was chosen as a representative of the replicates, and its IC values served as the final values for subsequent analysis.
Cell lines were classified as sensitive based on IC70 values less than the peak plasma concentration for each drug. To determine if cross-comparison of the PI3K/mTOR inhibitors as a class was feasible, their drug sensitivity patterns were compared with those of three cell cycle kinase inhibitors tested previously (Zhang et al., 2017). The PI3K/mTOR pathway inhibitors clustered separately from the cell cycle inhibitors (FIG. 12C).

## COc1ncc(-c2ccc3nccc(-c4ccnnc4)c3c2)cc1NS(=O)(=O)c1ccc(F)cc1F [GSK2126458]
HNSCC cell lines [1]
  number of colonies formed and total cell number: significantly reduced
[2]
  target inhibition (PI3K/mTOR pathway proteins): dose-dependent target inhibition
HNSCC cell lines [3]
  sub-G0 fraction: increased the sub-G0 fraction in only NOTCH1^MUT lines
HNSCC cell lines [3]; all cell lines
  G1 arrest: induced G1 arrest in all cell lines
HNSCC cell lines [4]
  cell viability, NOTCH1MUT and NOTCH1WT cell lines: differential effects
